The source of these data is patent US9150519B2, “6-amino-pyrimidine-4-carboxamide derivatives and related compounds which bind to the sphingosine 1-phosphate (S1P) receptor for the treatment of multiple sclerosis” (MERCK SERONO SA, priority 2007, dated 2015).

In this assay the target is S1P1 (Homo sapiens (Human), UniProt P21453). As to the kind of experiment: 35S-GTPγS binding assay, S1P1 membranes. Particulars: membranes from CHO cells expressing S1P1; read-out: S1P1 GTPyS EC50. The format is biochemical. As to the method:
Membranes were prepared from CHO cells expressing S1P1 or S1P3 for use in ligand and […] binding studies. Cells were suspended in 50 mM TRIS, pH 7.4, 2 mM EDTA, 250 mM Sucrose (buffer A) and 1× Complete protease inhibitor cocktail (Roche), and disrupted at 4° C. by nitrogen decompression using a cell disruption bomb (Parr Instrument). Following centrifugation at 1000 RPM for 10 min at 4° C., the supernatant was suspended in buffer A and centrifuged again at 19000 RPM for 60 min at 4° C. The pellet was then suspended in 10 mM HEPES, pH 7.4, 1 mM EDTA, 250 mM Sucrose (Buffer B), and 1× Complete EDTA-free protease inhibitor cocktail and homogenized using a potter. Membranes were flash frozen in liquid nitrogen and stored at −80° C. [33P]sphingosine 1-phosphate (3000 Ci/mmol; American Radiolabeled Chemicals, Inc.) was added to test compounds in DMSO. […] Binding was performed for 60 min at room temperature on a shaker and bound radioactivity was measured on a PerkinElmer 1450 MicroBeta counter. Specific binding was calculated by subtracting remaining radioactivity in the presence of 1000-fold excess of unlabeled S1P. Binding data were analyzed using the GraphPad Prism program.
The assay was initiated with the addition of 20 μl of 1.5 nM [35S]-GTPγS (1100 Ci/mmol; GE Healthcare) in assay buffer. After 60 min incubation at 30° C. on a shaker, plates were centrifuged for 10 min at 2000 RPM. Supernatant was discarded and membrane bound radioactivity was measured on a PerkinElmer 1450 MicroBeta counter. Triplicate samples were averaged and expressed as % response relative to SIP activation in absence of compound (n=2).

Chain of S1P1 (P21453 whole entry, species assumed): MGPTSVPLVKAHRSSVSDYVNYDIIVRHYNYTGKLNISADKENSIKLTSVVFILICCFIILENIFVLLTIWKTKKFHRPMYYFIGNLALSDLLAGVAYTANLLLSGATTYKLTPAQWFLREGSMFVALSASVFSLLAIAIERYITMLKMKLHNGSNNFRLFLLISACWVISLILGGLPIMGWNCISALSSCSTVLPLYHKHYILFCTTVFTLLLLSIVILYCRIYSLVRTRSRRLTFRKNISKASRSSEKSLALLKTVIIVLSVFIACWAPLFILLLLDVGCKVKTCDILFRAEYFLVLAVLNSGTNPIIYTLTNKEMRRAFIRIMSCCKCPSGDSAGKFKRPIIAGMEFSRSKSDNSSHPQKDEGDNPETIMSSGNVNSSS

As to `O=C(Nc1ccc(O)c(F)c1)c1cc(NC2CCCCC2)ncn1` [Example 1-14], the EC50 turned out to be 1580 nM. `NS(=O)(=O)c1ccc(NC(=O)c2cc(NC3CCCCC3)ncn2)cc1` [Example 1-17]: the EC50 was determined as 1990 nM. For the compound `Cc1cc(O)ccc1NC(=O)c1cc(N(C)C2CCCCC2)ncn1` [Example 1-21], the EC50 was 660 nM. The same measure for `Cc1cc(O)ccc1NC(=O)c1cc(NC2CCCCCC2)ncn1` [Example 1-23]: 970 nM; for `Cc1cc(O)ccc1NC(=O)c1cc(NC2CCCCC2C)ncn1` (stereo not shown) [Example 1-24]: 1680 nM. In the case of `COc1cc(NS(C)(=O)=O)ccc1NC(=O)c1cc(NC2CCCCC2)ncn1` [Example 1-27], the EC50 worked out at 374 nM. Consider `CN(c1cc(C(=O)Nc2ccc(S(N)(=O)=O)cc2)ncn1)C1CCCCC1` [Example 1-30], for which the EC50 was found to be 674 nM. The same measure for `CCNS(=O)(=O)c1ccc(NC(=O)c2cc(N(C)C3CCCCC3)ncn2)cc1` [Example 1-31]: 2000 nM; for `Cc1cc(O)ccc1NC(=O)c1cc(N(C)C2CCC(C)CC2)ncn1` (stereo not shown) [Example 1-32]: 610 nM; for `CN(c1cc(C(=O)Nc2ccc(S(=O)(=O)NCCO)cc2)ncn1)C1CCCCC1` [Example 1-37]: 907 nM. The same measure for `COCCNS(=O)(=O)c1ccc(NC(=O)c2cc(N(C)C3CCCCC3)ncn2)cc1` [Example 1-42]: 2280 nM; for `CN(c1cc(C(=O)Nc2ccnc3ccccc23)ncn1)C1CCCCC1` [Example 1-43]: 1350 nM.

On to `NCc1ccc(NC(=O)c2cc(N(CC3CC3)C3CCCCC3)ncn2)cc1` [Example 1-48], for which the EC50 was 39 nM. On to `O=C(Nc1ccncc1)c1cc(N(CC2CC2)C2CCCCC2)ncn1` [Example 1-49], for which the half-maximal effective concentration (EC50) turned out to be 107 nM. The same measure for `NC(=O)c1ccc(NC(=O)c2cc(N(CC3CC3)C3CCCCC3)ncn2)cc1` [Example 1-50]: 73 nM; for `O=C(Nc1ccc(S(=O)(=O)NCC(O)CO)cc1)c1cc(N(CC2CC2)C2CCCCC2)ncn1` (stereo not shown) [Example 1-51]: 60 nM. Consider `CCOCN(CCOC)c1cc(C(=O)Nc2ccc(S(N)(=O)=O)cc2C)ncn1` [Example 1-59], for which the EC50 came out at 558 nM. The same measure for `Cc1cc(S(N)(=O)=O)ccc1NC(=O)c1cc(OC2CCCCC2)ncn1` [Example 1-65]: 13300 nM; for `COCCN(c1cc(C(=O)Nc2ccc3[nH]ncc3c2)ncn1)C1CCCCC1` [Example 1-66]: 32 nM; for `CCCN(c1cc(C(=O)Nc2ccc3[nH]ncc3c2)ncn1)C(C)C` [Example 1-67]: 68 nM. Consider `COCCN(CCOC)c1cc(C(=O)Nc2ccc3[nH]ncc3c2)ncn1` [Example 1-70], for which the EC50 was 1110 nM. The same measure for `CCCN(CCC)c1cc(C(=O)Nc2ccc(CN)cc2)ncn1` [Example 1-72]: 497 nM. As to `CC(C)(C)OC(=O)CNCc1ccc(NC(=O)c2cc(N(CC3CC3)C3CCCCC3)ncn2)cc1` [Example 1-73], the EC50 came out at 724 nM.

Regarding `CCC(NCc1ccc(NC(=O)c2cc(N(CC3CC3)C3CCCCC3)ncn2)cc1)C(=O)OC` (stereo not shown) [Example 1-74], the EC50 worked out at 2160 nM. As to `CN(CC(=O)OC(C)(C)C)Cc1ccc(NC(=O)c2cc(N(CC3CC3)C3CCCCC3)ncn2)cc1` [Example 1-75], the EC50 amounted to 2690 nM. The same measure for `O=C(Nc1ccc(CN2CCNCC2)cc1)c1cc(N(CC2CC2)C2CCCCC2)ncn1` [Example 1-78]: 328 nM. As for `CCC(NCc1ccc(NC(=O)c2cc(N(CC3CC3)C3CCCCC3)ncn2)cc1)C(=O)O` (stereo not shown) [Example 1-80], the EC50 came to 287 nM. The same measure for `COC(=O)C(C)(C)NCc1ccc(NC(=O)c2cc(N(CC3CC3)C3CCCCC3)ncn2)cc1` [Example 1-83]: 1160 nM; for `COCCN(c1cc(C(=O)Nc2ccc3[nH]ncc3c2)ncn1)C(C)C` [Example 1-87]: 216 nM; for `CCCN(CC1CC1)c1cc(C(=O)Nc2ccc(CN)cc2)ncn1` [Example 1-88]: 101 nM.

For the compound `COCCN(CC1CC1)c1cc(C(=O)Nc2ccc(CN)cc2)ncn1` [Example 1-89], the EC50 was 1490 nM. The same measure for `CCCN(CC1CC1)c1cc(C(=O)Nc2ccc3c(c2)CCNC3)ncn1` [Example 1-91]: 145 nM; for `CCCN(CC1CC1)c1cc(C(=O)Nc2ccc3c(c2)CNCC3)ncn1` [Example 1-92]: 236 nM. As to `CCCN(CC1CC1)c1cc(C(=O)Nc2ccc(CN3CCOCC3)cc2C)ncn1` [Example 1-93], the EC50 stood at 1470 nM.

As to `CCCN(CC1CC1)c1cc(C(=O)Nc2ccc(CN(C)C)cc2C)ncn1` [Example 1-94], the EC50 is 265 nM. The same measure for `CCCN(CC1CC1)c1cc(C(=O)Nc2ccc(CNCCOC)cc2C)ncn1` [Example 1-95]: 821 nM; for `CCCN(CC1CC1)c1cc(C(=O)Nc2ccc(CN(C)CCO)cc2C)ncn1` [Example 1-96]: 391 nM.

As for `CCCN(CC1CC1)c1cc(C(=O)Nc2ccc(CN3CCCC3=O)cc2C)ncn1` [Example 1-98], the EC50 was 706 nM. In the case of `Cc1cc(S(=O)(=O)N(C)CC(=O)O)ccc1NC(=O)c1cc(N(CC2CC2)C2CCCCC2)ncn1` [Example 1-101], the EC50 was 127 nM.

`CCCN(CC1CC1)c1cc(C(=O)Nc2ccc(S(=O)(=O)N(C)CC(=O)O)cc2C)ncn1` [Example 1-102]: the EC50 is 1230 nM. Turning to `CCCN(CC1CC1)c1cc(C(=O)Nc2ccc(S(=O)(=O)NCC(=O)O)cc2C)ncn1` [Example 1-103], the EC50 amounted to 208 nM. The same measure for `CCCN(CC1CC1)c1cc(C(=O)Nc2ccc(CNC(C)C(=O)O)cc2C)ncn1` (stereo not shown) [Example 1-104]: 517 nM; for `CCCN(CC1CC1)c1cc(C(=O)Nc2ccc(S(=O)(=O)NCCOC)cc2C)ncn1` [Example 1-106]: 202 nM.

For the compound `CCCN(CC1CC1)c1cc(C(=O)Nc2ccc(S(=O)(=O)NCCCC(=O)O)cc2C)ncn1` [Example 1-108], the EC50 amounted to 238 nM. The same measure for `CCCN(CC1CC1)c1cc(C(=O)Nc2ccc(S(C)(=O)=O)cc2)ncn1` [Example 1-110]: 2340 nM; for `CCCN(CC1CC1)c1cc(C(=O)Nc2ccc(CNC)cc2C)ncn1` [Example 1-111]: 567 nM; for `CS(=O)(=O)c1ccc(NC(=O)c2cc(N(CC3CC3)C3CCCCC3)ncn2)cc1` [Example 1-112]: 193 nM.

On to `CCCN(CC1CC1)c1cc(C(=O)Nc2ccc3nn(CC(=O)N(C)C)cc3c2)ncn1` [Example 1-114], for which the EC50 was 1320 nM. Regarding `CCCN(CC1CC1)c1cc(C(=O)Nc2ccc3c(cnn3CC(=O)N(C)C)c2)ncn1` [Example 1-115], the concentration for a half-maximal effect (EC50) came to 2840 nM. The same measure for `CCCN(CC1CC1)c1cc(C(=O)Nc2ccc3c(cnn3CC(=O)O)c2)ncn1` [Example 1-116]: 3260 nM. The same measure for `CCCN(CC1CC1)c1cc(C(=O)Nc2ccc3c(cnn3CC(N)=O)c2)ncn1` [Example 1-117]: 1070 nM; for `CCCN(CC1CC1)c1cc(C(=O)Nc2ccc3nn(CC(N)=O)cc3c2)ncn1` [Example 1-118]: 6350 nM; for `CCCN(CC1CC1)c1cc(C(=O)Nc2ccc(CS(=O)(=O)CCC(=O)OCC)cc2)ncn1` [Example 1-119]: 5050 nM. As to `CCCN(CC1CC1)c1cc(C(=O)Nc2ccc3nn(CC(=O)OCC)cc3c2)ncn1` [Example 1-120], the EC50 stood at 596 nM.

For the compound `CCCN(CC1CC1)c1cc(C(=O)Nc2ccc3nn(CC(=O)O)cc3c2)ncn1` [Example 1-121], the half-maximal effective concentration (EC50) was 1010 nM. The same measure for `O=C(Nc1ccc(C(=O)O)c(F)c1)c1cc(N(CC2CC2)C2CCCCC2)ncn1` [Example 1-122]: 4360 nM; for `CCCN(CC1CC1)c1cc(C(=O)Nc2ccc3[nH]nc(CCC(=O)OC)c3c2)ncn1` [Example 1-123]: 860 nM; for `CCCN(CC1CC1)c1cc(C(=O)Nc2ccc(S(=O)(=O)CCCC(=O)O)cc2)ncn1` [Example 1-124]: 1500 nM.

As for `CCCN(CC1CC1)c1cc(C(=O)Nc2ccc3[nH]cnc3c2)ncn1` [Example 1-125], the EC50 is 2760 nM. As for `CCCN(CC1CC1)c1cc(C(=O)Nc2ccc(CN(C)CC(=O)O)cc2C)ncn1` [Example 1-128], the concentration for a half-maximal effect (EC50) was 816 nM. The same measure for `CCCN(CC1CC1)c1cc(C(=O)Nc2ccc3[nH]nc(CCC(=O)O)c3c2)ncn1` [Example 1-129]: 1710 nM; for `CCOC(=O)CCS(=O)(=O)Cc1ccc(NC(=O)c2cc(N(CC3CC3)C3CCCCC3)ncn2)cc1` [Example 1-130]: 537 nM; for `CCOC(=O)CCCS(=O)(=O)c1ccc(NC(=O)c2cc(N(CC3CC3)C3CCCCC3)ncn2)cc1` [Example 1-131]: 1680 nM. The same measure for `O=C(O)CCS(=O)(=O)Cc1ccc(NC(=O)c2cc(N(CC3CC3)C3CCCCC3)ncn2)cc1` [Example 1-133]: 226 nM. `CCCN(CC1CC1)c1cc(C(=O)Nc2cccc3[nH]ncc23)ncn1` [Example 1-134]: the EC50 was determined as 594 nM.

As for `CCCN(CC1CC1)c1cc(C(=O)Nc2ccc(CS(=O)(=O)CCC(=O)O)cc2)ncn1` [Example 1-135], the EC50 is 3120 nM.

As to `Cn1cnnc1-c1ccc(NC(=O)c2cc(N(CC3CC3)C3CCCCC3)ncn2)cc1` [Example 1-136], the concentration for a half-maximal effect (EC50) was 2040 nM.
